In patent publication US6461997B1, “Triazole sulfones having herbicidal activity” (Monsanto Technology LLC, priority 1999, dated 2002):

Legend:
XANST (cocklebur) = assay: Pre-plant incorporated (PPI) herbicidal activity, warm season; format: in vivo, Xanthium strumarium; details: PPI application
Protocol: (§1) In another set of tests, the pre-plant incorporated (PPI) activity of compounds of this invention was evaluated on the same species as for the pre-emergence tests described above. In the PPI tests the following procedure, designed to simulate PPI application, was used.
(§2) A pre-prepared topsoil mixture (described above) was placed in a pot and compacted to a depth of 1.0 to 1.25 cm from the top of the pot. Seeds of each of several monocotyledonous and dicotyledonous annual plant species were placed on top of the soil. A sufficient quantity of soil to cover the seeds and level fill the pot was weighed into an open container. A known amount of the test compound was dissolved or suspended in an organic solvent and applied by spraying to this cover soil. The cover soil was thoroughly mixed to distribute the test compound throughout the cover soil, and was then applied as a cover layer over the seeds. Untreated soil was used as a cover layer for control pots. After treatment the plants were placed in a greenhouse where they received 0.64 cm of overhead irrigation. All subsequent watering consisted of a light overhead mist and/or subirrigation as needed for germination and growth. Tables 9 and 10 below relate to warm season plant species which were placed after pre-emergence treatment in a greenhouse with a 30/21° C. day/night temperature regime. Tables 11 and 12 below relates to cool season plant species placed after pre-emergence treatment in a greenhouse or growth chamber with an 18/13° C. day/night temperature regime. Only the compounds of Examples 1, 6, 8, 11, 13 and 15-20 were included in PPI tests.
(§3) Approximately 14 days after planting and treating, the plants were observed and herbicidal efficacy recorded as percent inhibition by comparison with untreated plants.

STEME (common chickweed) = assay: Pre-emergence herbicidal activity, cool season; format: in vivo, Stellaria media; details: lowest tested rate with 80% or greater inhibition; rates 300, 100, 30, 10 g/ha; about 14 days
How it was run: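 GR80 values derive from percent inhibition relative to untreated plants, read roughly 14 days after sowing and pre-emergence soil-surface treatment (compound in 50:50 acetone/water; rates typically 10, 30, 100, 300 g/ha). Warm-season weeds grew at 30/21° C day/night, cool-season ones at 18/13° C; an asterisk marks activity without reaching 80% at the highest rate.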

[1] = tested on: AGRRE (quackgrass (seedling)); assay: Pre-plant incorporated (PPI) herbicidal activity, cool season; format: in vivo, Elymus repens; details: for Percent inhibition AGRRE: weed, PPI application
Protocol: as §1, §2, §3

ECHCG (barnyardgrass) = assay: Pre-plant incorporated (PPI) herbicidal activity, warm season; format: in vivo, Echinochloa crus-galli; details: for Percent inhibition ECHCG: PPI application
Protocol: as §1, §2, §3

SORVU (shattercane) = assay: as above; format: in vivo, Sorghum vulgare; details: for Percent inhibition SORVU: PPI application
Protocol: as §1, §2, §3

[2] = tested on: AEGCY (jointed goatgrass); assay: Post-emergence herbicidal activity, cool season; format: in vivo, Aegilops cylindrica; details: abraded plants sprayed at 300, 100, 30 and 10 g/ha; about 14 days after treatment
How it was run: (§4)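 Post-emergence foliar spray; plants abraded (garnet 200w, ~850 kPa sandblast) before application. Rates 300/100/30/10 g/ha in 50:50 acetone:water, 3,100 l/ha, 511 kPa. Greenhouse 18/13° C. day/night; % inhibition vs abraded unsprayed controls at ~14 days after treatment, GR80 derived.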

SETFA (giant foxtail) = assay: Pre-plant incorporated (PPI) herbicidal activity, warm season; format: in vivo, Setaria faberi; details: for Percent inhibition SETFA: PPI application
Protocol: as §1, §2, §3

LOLMG (annual ryegrass) = assay: Post-emergence herbicidal activity, cool season; format: in vivo, Lolium multiflorum; details: abraded plants sprayed at 300, 100, 30 and 10 g/ha; about 14 days after treatment
How it was run: as §4

[3] = pre-plant incorporated, lowest tested rate with 80% or greater inhibition, about 14 days

| SMILES | Percent inhibition XANST (XANST (cocklebur); 30 g/ha) [%] | Percent inhibition XANST (XANST (cocklebur); 100 g/ha) [%] | Percent inhibition XANST (XANST (cocklebur); 300 g/ha) [%] | Percent inhibition XANST (XANST (cocklebur); 900 g/ha) [%] | Pre-emergence activity GR80, STEME (STEME (common chickweed)) | Percent inhibition AGRRE ([1]; 30 g/ha) [%] | Percent inhibition AGRRE ([1]; 100 g/ha) [%] | Percent inhibition AGRRE ([1]; 300 g/ha) [%] | Percent inhibition AGRRE ([1]; 900 g/ha) [%] | Percent inhibition ECHCG (ECHCG (barnyardgrass); 30 g/ha) [%] | Percent inhibition ECHCG (ECHCG (barnyardgrass); 100 g/ha) [%] | Percent inhibition ECHCG (ECHCG (barnyardgrass); 300 g/ha) [%] | Percent inhibition ECHCG (ECHCG (barnyardgrass); 900 g/ha) [%] | Percent inhibition SORVU (SORVU (shattercane); 30 g/ha) [%] | Percent inhibition SORVU (SORVU (shattercane); 100 g/ha) [%] | Percent inhibition SORVU (SORVU (shattercane); 300 g/ha) [%] | Percent inhibition SORVU (SORVU (shattercane); 900 g/ha) [%] | Post-emergence activity GR80, AEGCY [2] | Percent inhibition SETFA (SETFA (giant foxtail); 30 g/ha) [%] | Percent inhibition SETFA (SETFA (giant foxtail); 100 g/ha) [%] | other results |
| --- | --- | --- | --- | --- | --- | --- | --- | --- | --- | --- | --- | --- | --- | --- | --- | --- | --- | --- | --- | --- | --- |
| CCN(CC)C(=O)n1cnc(S(=O)(=O)C(F)(F)SC)n1 [Example 9] | 0 | 0 | 30 | 60 | 300 g/ha | 0 | 70 | 80 | 100 | 90 | 100 | 100 | 100 | 60 | 70 | 100 | 100 | [empty] | 95 | 100 | Percent inhibition SETFA (SETFA (giant foxtail); 300 g/ha): 100%; Percent inhibition SETFA (SETFA (giant foxtail); 900 g/ha): 100%; Post-emergence activity GR80, LOLMG (LOLMG (annual ryegrass)): [empty] |
| CCN(CC)C(=O)n1cnc(S(=O)(=O)C(F)(F)SCc2ccccc2)n1 [Example 10] | 0 | 0 | 0 | 10 | 300 g/ha | 0 | 0 | 0 | 50 | 0 | 50 | 100 | 100 | 0 | 20 | 95 | 100 | [empty] | 60 | 80 | Percent inhibition XANST (XANST (cocklebur); 10 g/ha): 0%; Percent inhibition AGRRE ([1]; 10 g/ha): 0%; Percent inhibition ECHCG (ECHCG (barnyardgrass); 10 g/ha): 0%; Percent inhibition SORVU (SORVU (shattercane); 10 g/ha): 0%; Percent inhibition SETFA (SETFA (giant foxtail); 10 g/ha): 0%; Percent inhibition SETFA (SETFA (giant foxtail); 300 g/ha): 100%; Percent inhibition SETFA (SETFA (giant foxtail); 900 g/ha): 100%; Post-emergence activity GR80, LOLMG (LOLMG (annual ryegrass)): [empty] |
| CCN(CC)C(=O)n1cnc(S(=O)(=O)C(F)(F)SCC(=O)OC)n1 [Example 11] | 0 | 0 | 0 | 0 | [empty] | 0 | 0 | 0 | 0 | 0 | 40 | 70 | 99 | 0 | 10 | 65 | 100 | [empty] | 0 | 90 | Percent inhibition XANST (XANST (cocklebur); 10 g/ha): 0%; PPI activity GR80, AGRRE [1, 3]: * (activity observed, at least at highest rate, but <80% inhibition); Percent inhibition AGRRE ([1]; 10 g/ha): 0%; Percent inhibition ECHCG (ECHCG (barnyardgrass); 10 g/ha): 0%; PPI activity GR80, ECHCG (ECHCG (barnyardgrass); [3]): * (activity observed, at least at highest rate, but <80% inhibition); Percent inhibition SORVU (SORVU (shattercane); 10 g/ha): 0%; PPI activity GR80, SORVU (SORVU (shattercane); [3]): 300 g/ha; Percent inhibition SETFA (SETFA (giant foxtail); 10 g/ha): 0%; Percent inhibition SETFA (SETFA (giant foxtail); 300 g/ha): 60%; Percent inhibition SETFA (SETFA (giant foxtail); 900 g/ha): 100%; PPI activity GR80, SETFA (SETFA (giant foxtail); [3]): 300 g/ha; Post-emergence activity GR80, LOLMG (LOLMG (annual ryegrass)): [empty] |
